From PMC9527238, “Glutamate and GABAA receptor crosstalk mediates homeostatic regulation of neuronal excitation in the mammalian brain” (Signal Transduction and Targeted Therapy, 2022)
Where two headings read alike, the source gives them in different places.

How the values were obtained:
rat α1β2γ2 GABAARs = biological target: T1, rat α1β2γ2 GABAARs (Rattus norvegicus, UniProt P62813+P63138); assay: Whole-cell patch clamp of GABA-evoked currents, HEK293 cells expressing wild-type α1β2γ2; assay type: cell-based
T1 construct: expressed in transfected cells; host or cells: HEK293
Method: (§1) Co-expression of the α and β subunits is the minimum requirement for a functional recombinant GABAAR expressed in a heterologous cell line such as HEK293, while co-expression of the α, β and γ subunits is required for the recombinant receptor with a full pharmacological profile.[2] We therefore transiently expressed either rat α1β2 or α1β2γ2 subunits in HEK293 cells.
(§2) HEK293 cells were cultured in DMEM (Invitrogen) supplemented with 10% fetal bovine serum. Cells were grown to 40–60% confluence and transiently transfected using Lipofectamine 2000 (Invitrogen) with 1:0.5–1 plasmid/lipid ratio. Cells were transfected with a pBK-CMV expression vector containing a rat recombinant GABAAR α, β or γ subunits. Co-transections were done with a plasmid ratio of 1:1 αβ and 2:2:1 for αβγ subunit combinations, respectively. pcDNA3.1-GFP was also co-transfected along with GABAAR subunits as a transfected marker in order to facilitate the visualization of the transfected cells during electrophysiological experiments. Cells were re-plated on glass coverslips after 15–20 h transfection and were cultured for an additional 15–24 h before whole-cell patch-clamp recordings.
(§3) Whole-cell patch-clamp recordings were performed under voltage-clamp mode using an Axopatch 200B or 1D patch-clamp amplifier (Molecular Devices) on HEK293 cells and cultured neurons. Whole-cell currents were recorded at a holding potential of −60 mV, and signals were filtered at 2 kHz, digitized at 10 kHz (Digidata 1322 A). Recording pipettes (3–5 MΩ) were filled with the intracellular solution that contained (mM): CsCl 140, HEPES 10, Mg-ATP 4, QX-314 5, pH 7.20; osmolarity, 290–295 mOsm. BAPTA (10 mM) was added in the intracellular solution. The coverslips were continuously superfused with the extracellular solution containing (mM): NaCl 140, KCl 5.4, HEPES 10, MgCl2 1.0, CaCl2 1.3, glucose 20, pH 7.4; osmolarity, 305–315 mOsm. […] Dose–response curves were created by fitting data to Hill equation: I = Imax/[1 + (EC50/[A])^n], where I is the current, Imax is the maximum current, [A] is a given concentration of agonist, n is the Hill coefficient. […] All experiments were performed at room temperature.

rat α1β2 GABAARs = biological target: T2, rat α1β2 GABAARs (Rattus norvegicus, UniProt P62813+P63138); assay: Whole-cell patch clamp of GABA-evoked currents, HEK293 cells expressing α1β2; assay type: cell-based
T2 construct: expressed in transfected cells; host or cells: HEK293
Excerpt: as §1
HEK293 cells were transiently transfected with rat GABAAR α1/β2 (a–e) or α1/β2/γ2 (f) subunits. Whole-cell voltage-clamp recordings were performed with a chloride-based intracellular recording solution at a holding membrane potential of −60 mV.
as §2, §3

NMDA receptors = assay: NMDA receptor blockade in cultured hippocampal neurons; assay type: cell-based, rat; conditions: MK-801 10 μM co-applied with NMDA 50 μM through the bath for 3 min
α1β2 GABAARs = biological target: T3, α1β2 GABAARs (Rattus norvegicus, UniProt P62813+P63138); assay: [3H]glutamate binding assay, plasma membranes of HEK293 cells overexpressing α1 and β2
T3 construct: expressed in transfected cells; host or cells: HEK293
Method: For membrane preparation, transfected or non-transfected HEK293 cells were washed twice with cold PBS and harvested by scraping into 5 ml cold PBS. Cells were then centrifuged at 1200 × g for 12 min at 4 °C and medium was removed. The washing procedure was repeated twice. Then the cell pellet was re-suspended into 1 ml of 50 mM Tris-HCl buffer (pH 7.4, with protease inhibitor) and homogenized using syringes with 18-G, 21-G and 23-G needles.
To separate the membrane, the homogenate were centrifuged for 20 min at 20,000 × g at 4 °C. Then the pellet was re-suspended into 1 ml of 50 mM Tris-HCl buffer, pH 7.4 and centrifuged again. After repeating this procedure for one more time, the pellet was re-suspended into 1 ml of 50 mM Tris-HCl buffer, pH 7.4 and the protein concentration was measured.
To conduct the binding assay, 100 µg membrane enriched preparation was incubated with 40 nM [3H]-Glutamate in a total volume of 0.5 ml in 50 mM Tris-HCl buffer, pH 7.4 for 1 h on ice. […] Then the reaction was terminated by quickly filtering the solution on Whatman filter paper and washing by 3.5 ml Tris-HCl buffer. Radioactivity was measured in a Beckman liquid scintillation counter.

[1] = Kainic acid-induced seizure; assay type: in vivo, mouse; conditions: 20 mg/kg i.p.
Method: To test the allosteric potentiation of GABAARs by presynaptically released glutamate under certain physiological conditions, we delivered five trains of four pulses of theta-burst stimulation to increase endogenous glutamate released from the presynaptic glutamatergic terminals, and compared its effect on the pharmacologically isolated eIPSCs (following blockade of both AMPAR and NMDAR-mediated EPSCs) in WT and KI mice.
Kainic acid (KA) was dissolved in sterile saline at the concentration of 20 mg/ml. KA (20 mg/kg, i.p.) or same volume of saline as vehicle control was administered by intraperitoneal injection to induce seizures. Diazepam (20 mg/kg, s.c., obtained from Children’s Hospital of Chongqing Medical University) was injected 30 min before the injection of KA. […] All experiments were performed in accordance with approved institutional animal care guidelines.

[2] = biological target: T4, GABAAR-mediated currents, β2E181G KI mice (Mus musculus, UniProt P63137, E206G); assay: Whole-cell recording of CA1 neurons, hippocampal slices of homozygous β2E181G KI mice; assay type: cell-based; conditions: AP5 50 µM; homozygous KI slices
T4 construct: from tissue; host or cells: acute hippocampal slices of homozygous β2E181G knock-in mice (C57BL/6J), CA1 neurons
Method: (§4) We next determined if glutamate-mediated allosteric potentiation of GABAAR function was impaired in hippocampal slices acutely prepared from postnatal 90-day-old KI mice. Whole-cell recordings of CA1 neurons were performed under voltage clamp configuration at a holding potential of −60 mV.
(§5) Mice were deeply anesthetized with urethane (1.5 g/kg, i.p.) and transcardially perfused with ice cold sucrose hypertonic cutting solution (in mM: KCl 3.0, NaH2PO4.H2O 1.25, NaHCO3 26, Na-vitamin C 0.4, Na-lactate 2.0, Na-pyruvate 2.0, D-glucose 10.0, Sucrose 220, CaCl2 0.1, MgCl2 2, MgSO4 4.0, pH 7.4, 290–300 mOsm/l) prior to decapitation as described previously.[47] After decapitation, the brain was rapidly removed and transferred to the ice cold cutting solution bubbled with 95% O2 and 5% CO2, and acute coronal brain slices (400 μm) were prepared on a Leica vibratome (VT1200S, Germany). All brain slices were placed into a standard artificial cerebral spinal fluid (ACSF) (in mM: NaCl 124, KCl 2.8, NaH2PO4.H2O 1.25, NaHCO3 26, Na-vitamin C 0.4, Na-lactate 2.0, Na-pyruvate 2.0, D-glucose 10.0, CaCl2 2, MgSO4 1.2, pH 7.4, 290–300 mOsm/l) incubated at 35 °C for 2 h prior to recording. Field excitatory postsynaptic potential (fEPSP) recordings were performed under current-clamp mode using HEKA EPC10 patch-clamp amplifier (HEKA Electronic, Lambrecht/Pfalz, Germany). […]

postsynaptic GABAARs = assay: mIPSCs in cultured hippocampal neurons; assay type: cell-based, rat; conditions: AP5 200 μM; TTX 0.5 μM, CNQX 10 μM
Method: (§6) GABAAR-mediated inhibitory processes in the CNS include phasic and tonic inhibitions. The phasic inhibition is primarily mediated by the activation of postsynaptic GABAARs and can be evaluated by recording miniature inhibitory postsynaptic currents (mIPSCs; Fig. 2c).
(§7) Cultured hippocampal neurons were prepared from the brains of D18 fetal Wister rats. Tissues were digested with a 0.25% trypsin solution (Invitrogen) for 25 min at 37 °C, and then mechanically dissociated using a fire-polished Pasteur pipette. Next, the cell suspension was centrifuged at 2500 × g for 50 s and the cell pellets were resuspended in DMEM containing 10% Fetal Bovine Serum (FBS; Sigma-Aldrich). Cells were seeded on poly-D-lysine-coated 24-well coverslips at a density of 2.5 × 10^5 cells/well. Cultures were maintained in a humidified incubator with 5% CO2 at 37 °C. After 24 h, plating medium was changed to Neurobasal medium supplemented with B-27 supplement and L-glutamine, and the media changed twice weekly thereafter. […]
(§8) Whole-cell patch-clamp recordings were performed under voltage-clamp mode using an Axopatch 200B or 1D patch-clamp amplifier (Molecular Devices) on HEK293 cells and cultured neurons. Whole-cell currents were recorded at a holding potential of −60 mV, and signals were filtered at 2 kHz, digitized at 10 kHz (Digidata 1322 A). […]

[3] = system: GABAAR-mediated currents, WT mice; assay: Whole-cell recording of CA1 neurons, hippocampal slices of WT mice; assay type: cell-based, mouse; conditions: AP5 50 µM
Method: as §4, §5

native GABAARs = assay: GABA-evoked whole-cell currents in cultured hippocampal neurons; assay type: cell-based, rat
Method: Cultured hippocampal neurons were prepared from the brains of D18 fetal Wister rats. Tissues were digested with a 0.25% trypsin solution (Invitrogen) for 25 min at 37 °C, and then mechanically dissociated using a fire-polished Pasteur pipette. Next, the cell suspension was centrifuged at 2500 × g for 50 s and the cell pellets were resuspended in DMEM containing 10% Fetal Bovine Serum (FBS; Sigma-Aldrich). Cells were seeded on poly-D-lysine-coated 24-well coverslips at a density of 2.5 × 10^5 cells/well. Cultures were maintained in a humidified incubator with 5% CO2 at 37 °C. After 24 h, plating medium was changed to Neurobasal medium supplemented with B-27 supplement and L-glutamine, and the media changed twice weekly thereafter. Cultured neurons were used for electrophysiological recordings between 10–14 days after plating.
as §3

extrasynaptic GABAARs = assay: GABAAR-mediated tonic currents in cultured hippocampal neurons; assay type: cell-based, rat; conditions: prior addition of AP5 200 μM; bicuculline 10 μM
Method: as §6, §7, §8

## Cc1onc(O)c1CC(N)C(=O)O (stereo not drawn) [AMPA, α-amino-3-hydroxyl-5-methyl-4-isoxazole-propionate]
Rat α1β2γ2 GABAARs
  GABA currents in presence of ligand, compared with GABA alone: 165.8 ± 6.2%
Rat α1β2 GABAARs
  GABA-mediated currents in presence of ligand, compared with currents induced by GABA alone: 339.2 ± 38.0%

## C[C@]12N[C@H](Cc3ccccc31)c1ccccc12 [MK-801]
Rat α1β2 GABAARs; MK-801, concentration not given, data not shown
  effect on GABA currents: did not affect GABA currents
NMDA receptors
  NMDA receptor blockade: complete and long-lasting NMDA receptor blockade

## [^3H]glutamate
α1β2 GABAARs; 40 nM [3H]glutamate only, 100 µg membrane, 1 h on ice
  [3H]glutamate binding activity: 938.2 ± 82.7 CPM

## C=C(C)[C@H]1CN[C@H](C(=O)O)[C@H]1CC(=O)O [kainic acid]
Rat α1β2γ2 GABAARs
  GABA currents in presence of ligand, compared with GABA alone: 188.7 ± 5.5%
Rat α1β2 GABAARs
  GABA-mediated currents in presence of ligand, compared with currents induced by GABA alone: 388.2 ± 61.0%
[1]; WT mice
  latency of kainic acid-induced seizure activity: 189.6 ± 15.2 s
[1]; β2E181G KI mice
  latency of kainic acid-induced seizure activity: 161.0 ± 4.0 s

## N#Cc1cc2[nH]c(=O)c(=O)[nH]c2cc1[N+](=O)[O-] [CNQX, 6-cyano-7-nitroquinoxaline-2,3-dione]
Rat α1β2γ2 GABAARs; CNQX, concentration not given, GABA 1 μM
  GABA currents in presence of ligand, compared with GABA alone: 105.6 ± 6.5%
Rat α1β2 GABAARs; CNQX 10 μM, GABA 1 μM
  GABA evoked currents in presence of ligand, compared with GABA alone: 107.3 ± 6.5%
Rat α1β2 GABAARs; CNQX 1 mM, data not shown
  effect on GABA-evoked currents: did not affect GABA-evoked currents

## CN[C@H](CC(=O)O)C(=O)O [NMDA, N-methyl-D-aspartate]
Rat α1β2γ2 GABAARs
  GABA currents in presence of ligand, compared with GABA alone: 171.7 ± 5.4%
Rat α1β2 GABAARs
  GABA-mediated currents in presence of ligand, compared with currents induced by GABA alone: 267.6%

## N[C@H](C(=O)O)[C@@H](OCc1ccccc1)C(=O)O [TBOA, threo-β-Benzyloxyaspartic acid]
Rat α1β2γ2 GABAARs; ligand 100 μM each, GABA 1 μM
  GABA currents in presence of ligand, compared with GABA alone: 159.9 ± 7.8%
Rat α1β2 GABAARs; ligand 100 μM, GABA 1 μM
  GABA-mediated currents in presence of ligand, compared with currents induced by GABA alone: 202.8 ± 18.3%

## N[C@H](CCCP(=O)(O)O)C(=O)O [AP5, D-2-amino-5-phosphonovaleric acid]
[2]
  GABA-evoked currents relative to baseline: 104.6 ± 12.7%
α1β2 GABAARs; 40 nM [3H]glutamate + 0.4 mM non-radiolabeled competitor
  [3H]glutamate binding activity in presence of competitor: 240.8 ± 36.8 CPM
Rat α1β2γ2 GABAARs; ligand 100 μM each, GABA 1 μM
  GABA currents in presence of ligand, compared with GABA alone: 173.3 ± 3.7%
Postsynaptic GABAARs
  mIPSC amplitude: 36.6 ± 3.6 pA
  mIPSC frequency: 0.90 ± 0.29 Hz
Rat α1β2 GABAARs; ligand 100 μM, GABA 1 μM
  GABA-mediated currents in presence of ligand, compared with currents induced by GABA alone: 254.9 ± 33.0%
[3]
  GABA-evoked currents relative to baseline: 193.5 ± 27.0%
Native GABAARs; AP5 100 μM bath, GABA 0.5 μM, TTX and CNQX present
  amplitude of GABA currents, % of the control: 157.7 ± 9.1%
Native GABAARs; AP5 200 µM, GABA 10 μM
  reversal potential of GABA currents (I-V curve): without altering the reversal potential
Native GABAARs; after MK-801 10 μM + NMDA 50 μM for 3 min, AP5 200 μM, GABA 10 μM (Fig. S1a)
  potentiation of GABA currents after NMDA receptor blockade: reversibly potentiated GABA currents
Native GABAARs; read-out: EC50 of AP5 enhancement of GABA currents, GABA 0.5 μM
  EC50: 150 ± 27 µM
Extrasynaptic GABAARs
  tonic current revealed by bicuculline: 17.28 ± 2.80 pA
